{"source": "paper PMC10451032", "about": "(ACS Central Science, 2023)", "key": {"[1]": {"test_system": "rNsp5^WT recombinant SARS-CoV-2", "assay": "microbe, parasite or virus in culture", "assay_type": "cell-based", "settings": "Severe acute respiratory syndrome coronavirus 2"}, "[2]": {"test_system": "triple mutant L50F/E166A/L167F", "settings": "cited from earlier work"}, "[3]": {"test_system": "triple mutant L50F/E166A/L167F", "settings": "cited from earlier work", "remark": "listed apart in the source"}}, "data": [{"smiles": "CC(C)(C)[C@H](NC(=O)C(F)(F)F)C(=O)N1C[C@H]2[C@@H]([C@H]1C(=O)N[C@H](C#N)C[C@@H]1CCNC1=O)C2(C)C", "note": "[nirmatrelvir]", "values": [{"measurement": "EC50", "setting": "[1]", "value": 25.5, "unit": "nM"}, {"measurement": "IC50 increase in the enzymatic assay", "setting": "[2]", "value": 72, "unit": "fold"}, {"measurement": "EC50 increase in the antiviral assay", "setting": "[3]", "value": 51, "unit": "fold"}]}]}
